Measured values from patent US10899754B2, “Modulators of indoleamine 2,3-dioxygenase” (GLAXOSMITHKLINE INTELLECTUAL PROPERTY DEVELOPMENT LIMITED, priority 2016, dated 2021).
Values belong to the compound of their own block, whether it stands above or below them.

Columns and labels:
[1] = test system: human peripheral blood mononuclear cells (PBMC); experiment: PBMC cytotoxicity assay (CellTiter-Glo); type: cell-based; conditions: 2 days, pCC50
Summary of the method: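 % cytotoxicity was taken from CellTiter-Glo luminescence, using wells without cells and stimulated DMSO wells as references, and fitted by four-parameter curve to give XC50. Cells were human PBMC at 50,000 per well, activated with 100 ng/ml IFN-γ plus 50 ng/ml LPS. Incubation with 11-point, 3-fold dilution series ran for 2 days at 37 °C.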

[2] = biological target: indoleamine 2, 3-dioxygenase (IDO1) (Homo sapiens, UniProt P14902); experiment: IDO1 PBMC RapidFire MS assay (kynurenine detection by mass spectrometry); type: cell-based; set-up: to induce the expression of indoleamine 2, 3-dioxygenase (IDO1); host or cells: human PBMC stimulated with IFN-gamma and LPS; conditions: human PBMC stimulated with IFN-γ and LPS, 2 days, pIC50, read-out: PBMC PXC50 (converted)
Summary of the method: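 Kynurenine output, read by RapidFire mass spectrometry as ratio to an internal standard, was measured after 2-day compound exposure (11-point, 3-fold dilutions) of human PBMCs induced with 100 ng/ml IFN-γ and 50 ng/ml LPS. Cell viability tracked alongside via ATP luminescence; XC50 from curve fitting.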

indoleamine 2, 3-dioxygenase (IDO1), sequence (P14902 whole entry): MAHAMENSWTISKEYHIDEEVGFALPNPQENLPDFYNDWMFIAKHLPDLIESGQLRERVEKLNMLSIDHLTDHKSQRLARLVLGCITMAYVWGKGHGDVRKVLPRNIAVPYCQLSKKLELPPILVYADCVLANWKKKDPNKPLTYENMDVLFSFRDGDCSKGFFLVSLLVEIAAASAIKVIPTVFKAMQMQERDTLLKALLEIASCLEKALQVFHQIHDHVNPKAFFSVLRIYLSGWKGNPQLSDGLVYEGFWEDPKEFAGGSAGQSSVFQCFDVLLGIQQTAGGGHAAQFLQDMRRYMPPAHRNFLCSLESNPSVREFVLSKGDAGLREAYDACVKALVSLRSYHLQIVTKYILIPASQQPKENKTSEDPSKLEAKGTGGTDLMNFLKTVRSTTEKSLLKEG

- IC50 [2]: 200 nM
Compound: CNC(=O)c1n[nH]c(Nc2cc([C@H](C)CC(=O)O)ccc2N(CC(C)C)C2CCOCC2)n1 [example 237, (3R)-3-(3-{[3-(methylcarbamoyl)-1H-1,2,4-triazol-5-yl]amino}-4-[(2-methylpropyl)(oxan-4-yl)amino]phenyl)butanoic acid]
- PBMC TOX PXC50 [1]: <5

- IC50 [2]: 20 nM
Compound: CC(C)CN(c1ccc(C(C)CC(=O)O)cc1Nc1nnc(C(=O)NC2CC2)s1)C1CCCCC1 (stereo not drawn) [example 238, 3-{4-[cyclohexyl(2-methylpropyl)amino]-3-{[5-(cyclopropylcarbamoyl)-1,3,4-thiadiazol-2-yl]amino}phenyl}butanoic acid]
- PBMC TOX PXC50 [1]: <5

- IC50 [2]: 1260 nM
Compound: CC(C)CN(CC(C)C)c1ccc(C(C)CC(=O)O)cc1Nc1nnn(C(C)C)n1 (stereo not drawn) [example 250, 3-{4-[bis(2-methylpropyl)amino]-3-{[2-(propan-2-yl)-2H-1,2,3,4-tetrazol-5-yl]amino}phenyl}butanoic acid]
- PBMC TOX PXC50 [1]: <5

- IC50 [2]: 31.6 nM
Compound: CC(C)CN(c1ccc([C@H](C)CC(=O)O)cc1Nc1nnc(C(N)=O)s1)C1CCOCC1 [example 261, (3R)-3-{3-[(5-carbamoyl-1,3,4-thiadiazol-2-yl)amino]-4-[(2-methylpropyl)(oxan-4-yl)amino]phenyl}butanoic acid]
- PBMC TOX PXC50 [1]: <5

- IC50 [2]: 15.8 nM
Compound: CC(C)CN(c1ccc([C@H](C)CC(=O)O)cc1Nc1nc(C#N)c[nH]1)C1CCOCC1 [example 228, (3R)-3-{3-[(4 cyano-1H-imidazol-2-yl)amino]-4-[(2-methylpropyl)(oxan-4-yl)amino]phenyl}butanoic acid]
- PBMC TOX PXC50 [1]: <5

- IC50 [2]: 20 nM
Compound: CC(C)CN(c1ccc([C@H](C)CC(=O)NO)cc1Nc1nc(C(F)(F)F)ns1)C1CCOCC1 [example 233, (3R)-N-hydroxy-3-{4-[(2-methylpropyl)(oxan-4-yl)amino]-3-{[3-(trifluoromethyl)-1,2,4-thiadiazol-5-yl]amino}phenyl}butanoic amide]
- PBMC TOX PXC50 [1]: <5

- IC50 [2]: 398 nM
Compound: CC(C)CN(c1ccc([C@H](C)CC(=O)O)cc1Nc1ncn[nH]1)C1CCOCC1 [example 242, (3R)-3-{4-[(2-methylpropyl)(oxan-4-yl)amino]-3-[(1H-1,2,4-triazol-5-yl)amino]phenyl}butanoic acid]
- PBMC TOX PXC50 [1]: <5

- IC50 [2]: 20 nM
Compound: CC(C)CN(CCCCCNC(=O)c1ccc(C2(C(F)(F)F)N=N2)cc1)c1ccc([C@H](C)CC(=O)O)cc1Nc1nc(C(F)(F)F)ns1 [example 255, (3R)-3-{4-[(2-methylpropyl)[5-({4-[3-(trifluoromethyl)-3H-diazirin-3-yl]phenyl}formamido)pentyl]amino]-3-{[3-(trifluoromethyl)-1,2,4-thiadiazol-5-yl]amino}phenyl}butanoic acid]
- PBMC TOX PXC50 [1]: <4.3

- IC50 [2]: 25.1 nM
Compound: CC(C)CN(c1ccc([C@H](C)CC(=O)O)cc1Nc1ncc(Cl)cn1)C1CCOCC1 [example 231, (3R)-3-{3-[(5-chloropyrimidin-2-yl)amino]-4-[(2-methylpropyl)(oxan-4-yl)amino]phenyl}butanoic acid]
- PBMC TOX PXC50 [1]: <5

- IC50 [2]: 398 nM
Compound: CC(C)CN(c1ccc(C(C)CC(=O)O)cc1Nc1nnc(C(=O)NC(C)C)s1)C1CCCCC1 (stereo not drawn) [example 245, 3-{4-[cyclohexyl(2-methylpropyl)amino]-3-({5-[(propan-2-yl)carbamoyl]-1,3,4-thiadiazol-2-yl}amino)phenyl}butanoic acid]
- PBMC TOX PXC50 [1]: <5

- IC50 [2]: 3160 nM
Compound: CC(C)CN(c1ccc([C@H](C)CC(=O)O)cc1Nc1nc(C(N)=O)c[nH]1)C1CCOCC1 [example 230, (3R)-3-{3-[(4-carbamoyl-1H-imidazol-2-yl)amino]-4-[(2-methylpropyl)(oxan-4-yl)amino]phenyl}butanoic acid]
- PBMC TOX PXC50 [1]: <5

Second part, the compound before the results:

Compound: CO[C@H]1CC[C@H](N(CC(C)C)c2ccc([C@H](C)CC(=O)O)cc2Nc2nc(Cl)ns2)CC1 [Example 54, (R)-3-(3-((3-chloro-1,2,4-thiadiazol-5-yl)amino)-4-(isobutyl((1r,4R)-4-methoxycyclohexyl)amino)phenyl)butanoic Acid]
- PBMC TOX PXC50 [1]: <5
- IC50 [2]: 2 nM

Compound: CC(C)CN(c1ccc([C@H](C)Cc2nnn[nH]2)cc1Nc1nc(Cl)ns1)C1CCOCC1 [Example 100, (R)-4-(1-(1H-tetrazol-5-yl)propan-2-yl)-N^2-(3-chloro-1,2,4-thiadiazol-5-yl)-N^1-isobutyl-N^1-(tetrahydro-2H-pyran-4-yl)benzene-1,2-diamine]
- PBMC TOX PXC50 [1]: <5
- IC50 [2]: 2 nM

Compound: CC(=O)N1CCC(N(CC(C)C)c2ccc([C@H](C)CC(=O)O)cc2Nc2nc(C(F)(F)F)ns2)CC1 [Example 70, (R)-3-(4-((1-acetylpiperidin-4-yl) (isobutyl)amino)-3-((3-(trifluoromethyl)-1,2,4-thiadiazol-5-yl)amino)phenyl)butanoic Acid]
- PBMC TOX PXC50 [1]: <5
- IC50 [2]: 3.16 nM

Compound: CC(C)CN(c1ccc([C@H](C)CC(=O)O)cc1Nc1nc(C(C)C)ns1)C1CCOCC1 [Example 26, (R)-3-(4-(isobutyl(tetrahydro-2H-pyran-4-yl)amino)-3-((3-isopropyl-1,2,4-thiadiazol-5-yl)amino)phenyl)butanoic Acid]
- PBMC TOX PXC50 [1]: <5
- IC50 [2]: 3.16 nM

Compound: CC(C)CN(c1ccc([C@H](C)CC(=O)O)cc1Nc1n[nH]c(Cl)n1)C1CCOCC1 [Example 34, (R)-3-(3-((5-Chloro-1H-1,2,4-triazol-3-yl)amino)-4-(isobutyl(tetrahydro-2H-pyran-4-yl)amino)phenyl)butanoic Acid]
- PBMC TOX PXC50 [1]: <5
- IC50 [2]: 6.31 nM

Compound: CC(C)CN(CCCCCN=[N+]=[N-])c1ccc([C@H](C)CC(=O)O)cc1Nc1nc(C(F)(F)F)ns1 [Example 94, (R)-3-(4-((5-azidopentyl) (isobutyl)amino)-3-((3-(trifluoromethyl)-1,2,4-thiadiazol-5-yl)amino)phenyl)butanoic Acid]
- PBMC TOX PXC50 [1]: <4.3
- IC50 [2]: 1.26 nM

Compound: CC(C)CN(c1ccc([C@H](C)CC(=O)O)cc1Nc1ccc(C(F)(F)F)nn1)C1CCOCC1 [Example 18, (R)-3-(4-(isobutyl(tetrahydro-2H-pyran-4-yl)amino)-3-((6-(trifluoromethyl)pyridazin-3-yl)amino)phenyl)butanoic Acid]
- PBMC TOX PXC50 [1]: <5
- IC50 [2]: 2 nM

Compound: CC(C)CN(c1ccc([C@H](C)CC(=O)O)cc1Nc1n[nH]c(C(N)=O)n1)[C@H]1CC[C@H](O)CC1 (racemic) [example 225, (3RS)-3-{3-[(5-carbamoyl-1H-1,2,4-triazol-3-yl)amino]-4-[(2-methylpropyl)[(1rs&,4rs&)-4-hydroxycyclohexyl]amino]phenyl}butanoic acid]
- PBMC TOX PXC50 [1]: <5
- IC50 [2]: 7940 nM

Compound: CC(C)CN(c1ccc([C@H](C)CC(=O)O)cc1Nc1n[nH]c(C(F)(F)F)n1)[C@H]1CC[C@@H](Br)CC1 [Example 93, (R)-3-(4-(((cis)-4-bromocyclohexyl) (isobutyl)amino)-3-((5-(trifluoromethyl)-1H-1,2,4-triazol-3-yl)amino)phenyl)butanoic Acid]
- PBMC TOX PXC50 [1]: <5
- IC50 [2]: 1.26 nM

Compound: CO[C@H]1CC[C@H](N(CC(C)C)c2ccc([C@H](C)CC(=O)O)cc2Nc2ccc(C#N)cn2)CC1 [Example 56, (R)-3-(3-((5-cyanopyridin-2-yl)amino)-4-(isobutyl((1r,4R)-4-methoxycyclohexyl)amino)phenyl)butanoic Acid]
- PBMC TOX PXC50 [1]: <5
- IC50 [2]: 3.98 nM

Compound: CC(C)CN(CC(C)C)c1ccc([C@H](C)CC(=O)O)cc1Nc1ccc(=O)n(C)c1 [example 218, (3R)-3-{4-[bis(2-methylpropyl)amino]-3-[(1-methyl-6-oxo-1,6-dihydropyridin-3-yl)amino]phenyl}butanoic acid]
- PBMC TOX PXC50 [1]: <5
- IC50 [2]: 2000 nM

Compound: CC(C)CN(CC(C)C)c1ccc([C@H](C)CC(=O)O)cc1Nc1n[nH]c(C(F)(F)F)n1 [Example 86, (R)-3-(4-(diisobutylamino)-3-((5-(trifluoromethyI)-1H-1,2,4-triazol-3-yl)amino)phenyl)butanoic Acid]
- PBMC TOX PXC50 [1]: <5
- IC50 [2]: 3.98 nM

Compound: CC(C)CN(c1ccc([C@H](C)CC(=O)O)cc1Nc1nc(C(F)(F)F)c[nH]1)C1CCOCC1 [Example 114, (R)-3-(4-(isobutyl(tetrahydro-2H-pyran-4-yl)amino)-3-((4-(trifluoromethyl)-1H-imidazol-2-yl)amino)phenyl)butanoic Acid]
- PBMC TOX PXC50 [1]: <5
- IC50 [2]: 15.8 nM

Compound: CC(C)CN(c1ccc([C@H](C)CC(=O)O)cc1Nc1ccc(C#N)nc1)C1CCOCC1 [Example 13, (R)-3-(3-((6-cyanopyridin-3-yl)amino)-4-(isobutyl(tetrahydro-2H-pyran-4-yl)amino)phenyl)butanoic Acid]
- PBMC TOX PXC50 [1]: <5
- IC50 [2]: 1.26 nM

Compound: CC(C)CN(c1ccc([C@H](C)CC(=O)O)cc1Nc1n[nH]c(C(F)(F)F)n1)C1CCCCC1 [Example 78, (R)-3-(4-(cyclohexyl(isobutyl)amino)-3-((5-(trifluoromethyl)-1H-1,2,4-triazol-3-yl)amino)phenyl)butanoic Acid]
- PBMC TOX PXC50 [1]: <5
- IC50 [2]: 3.16 nM

Compound: CC(C)CN(c1ccc([C@H](C)CC(=O)O)cc1Nc1n[nH]c(C(F)(F)F)n1)C1CCOCC1 [Example 32, (R)-3-(4-(Isobutyl(tetrahydro-2H-pyran-4-yl)amino)-3-((5-(trifluoromethyl)-1H-1,2,4-triazol-3-yl)amino)phenyl)butanoic Acid]
- PBMC TOX PXC50 [1]: <5
- IC50 [2]: 10 nM
